The values below come from patent US5569742A (The Salk Institute for Biological Studies, priority 1994, dated 1996).

Positions of bridges follow the written chain, without caps; N, C: chain ends. Residues, ends and D or L forms follow the SMILES beside them. A value given as a limit tells only on which side of the number the result lay.

Assay [1] has as its target T1, NPY Y2 receptor (Homo sapiens, UniProt P49146).
T1 construct: Functional Y2 receptors have been identified on the cell line SK-N-BE2; endogenous in cells; host or cells: SK-N-BE(2) human neuroblastoma cells (intact, plated cells)
T1 sequence (P49146 1-381): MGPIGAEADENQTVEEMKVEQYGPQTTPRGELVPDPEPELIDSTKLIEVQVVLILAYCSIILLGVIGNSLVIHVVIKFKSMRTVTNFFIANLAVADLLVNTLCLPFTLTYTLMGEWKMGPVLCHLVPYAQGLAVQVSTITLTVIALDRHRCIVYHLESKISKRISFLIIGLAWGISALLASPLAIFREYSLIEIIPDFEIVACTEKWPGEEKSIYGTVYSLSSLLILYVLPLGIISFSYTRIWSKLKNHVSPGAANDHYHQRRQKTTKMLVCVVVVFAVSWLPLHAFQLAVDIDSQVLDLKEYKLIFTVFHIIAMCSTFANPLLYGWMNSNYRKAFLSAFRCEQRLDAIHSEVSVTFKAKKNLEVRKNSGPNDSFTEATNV
Kind of assay: Receptor binding assay, displacement of [125I]PYY from SK-N-BE2 cells. The method, then: (§1) Receptor binding assays are performed using the human neuroblastoma SK-N-MC cells Y1 receptors) and the SK-N-BE(2) cells (Y2 receptors). Cells are grown to confluence in […], trypsinized, and plated into 24 microwells plates (10^5 cells per well). Media for SK-N-MC cells is MEM Eagles (500 mL) buffer, containing L-glutamine (10 Ml, 200 mM, penicillin/streptomycin (5 Ml.10 000 mg/mL), nonessential amino acids (5 mL, 11 mg/mL), fetal calf serum (50 mL, 10%), and 500 μL of fungiyorl. Media for SK-N-BE(2) cells is DME-F12 (500 mL) buffer, containing L-glutamine (10 mL, 200 mM), penicillin/streptomycin (5 mL, 10 000 mg/mL), fetal calf serum (50 mL, 10%), and 500 μL of fungiyorl. After 1 day for the SK-N-BE(2) and 2 days for the SK-N-MC, the cells are grown to the appropriate density and are used for binding assays
(§2) Peptides to be tested are prealiquoted at 100 μg/Ml in 100 μL of solution in MILLI-Q™ water (Millipore, U.S.A.). Solutions of peptides in different concentrations (seven doses from 10^-6 to 10^-10 M) are prepared in binding buffer (0.30M sucrose, 10 mM HEPES, 0.1% BSA, and pH is adjusted to 7.4 with NaOH).

Assay [2] addresses T2, NPY Y1 receptor (Homo sapiens, UniProt P25929).
T2 construct: The human SK-N-MC cell line expresses the Y1 receptor subtype; endogenous in cells; host or cells: SK-N-MC human neuroblastoma cells (intact, plated cells)
T2 sequence (P25929 1-384): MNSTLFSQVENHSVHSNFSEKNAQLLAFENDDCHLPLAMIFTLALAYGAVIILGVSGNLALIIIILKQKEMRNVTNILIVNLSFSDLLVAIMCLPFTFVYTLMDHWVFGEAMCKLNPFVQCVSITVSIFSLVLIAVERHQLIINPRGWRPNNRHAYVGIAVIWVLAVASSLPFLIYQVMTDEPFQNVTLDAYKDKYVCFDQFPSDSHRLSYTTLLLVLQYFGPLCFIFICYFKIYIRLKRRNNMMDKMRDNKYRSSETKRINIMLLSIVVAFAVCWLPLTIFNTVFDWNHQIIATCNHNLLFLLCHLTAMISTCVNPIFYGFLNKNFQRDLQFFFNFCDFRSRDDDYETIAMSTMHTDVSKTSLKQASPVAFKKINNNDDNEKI
Briefly: Receptor binding assay, displacement of [125I]PYY from SK-N-MC cells. The method, then:
as §1, §2

`CC[C@H](C)[C@H](NC(=O)[C@H](Cc1ccc(O)cc1)NC(=O)[C@H](Cc1c[nH]cn1)NC(=O)[C@H](CCCNC(=N)N)NC(=O)[C@H](CC(C)C)NC(=O)[C@H](C)NC(=O)[C@H](CO)NC(=O)[C@@H]1CSSC[C@H](NC(=O)[C@H](CC(=O)O)NC(=O)[C@@H]2CCCN2C(=O)[C@H](CCCCN)NC(=O)[C@H](CO)NC(=O)[C@@H]2CCCN2C(=O)[C@@H](N)Cc2ccc(O)cc2)C(=O)N2CCC[C@H]2C(=O)NCC(=O)N1)C(=O)N[C@@H](CC(N)=O)C(=O)N[C@@H](CC(C)C)C(=O)N[C@H](C(=O)N[C@H](C(=O)N[C@@H](CCCNC(=N)N)C(=O)N1CCC[C@H]1C(=O)N[C@@H](CCCNC(=N)N)C(=O)N[C@@H](Cc1ccc(O)cc1)C(N)=O)[C@@H](C)O)[C@@H](C)CC` [SEQ ID NO:8] (H-YPSKPDCPGCSALRHYINLITRPRY-NH2; disulfide 7-10): the Ki in assay [1] was more than 1000 nM; in assay [2] it was 32 nM.
